Experimental data taken from patent US20240279201A1, “DUAL WNT SIGNALING PATHWAY INHIBITORS AND AMPK ACTIVATORS FOR TREATMENTS OF DISEASE” (priority 2021, published 2024).

Legend:
[1] = system: Wnt/β-Catenin signaling pathway; experiment: Wnt signaling luciferase (TOPflash) reporter gene assay; assay type: cell-based; conditions: for IC50: luciferase reporter gene assay, mean of three independent experiments, read-out: IC50 (nM) to inhibit the Wnt signaling activity
Description: A dual-luciferase gene reporter assay was used to test inhibitory activities of new compounds on Wnt signaling. […] Therefore, the effects of new compounds on AMPK was examined. […]

[2] = Cytotoxicity (CC50) during the luciferase gene reporter assay; assay type: cell-based; conditions: human, HEK293 cells; short treatment duration of the luciferase gene reporter assay

| Structure (SMILES) | inhibition at 1 µM [1] [%] | IC50 [1] [nM] | CC50 [2] [nM] |
| --- | --- | --- | --- |
| Cc1c(C(=O)Nc2nc3ccccc3s2)nnn1-c1ccccc1 [YA6029, N-(Benzo[d]thiazol-2-yl)-5-methyl-1-phenyl-1H-1,2,3-triazole-4-carboxamide] | 81 | 7.82 | > 92000 |
| Cc1ccc(-c2csc(NC(=O)c3nnn(-c4ccccc4C)c3C)n2)c(C)c1 [YA4169] |  | > 1000 | > 92000 |
| Cc1ccccc1-n1nnc(C(=O)Nc2nc3ccc(F)cc3s2)c1C [YA4103, N-(6-Fluorobenzo[d]thiazol-2-yl)-5-methyl-1-(o-tolyl)-1H-1,2,3-triazole-4-carboxamide] |  | 4 | > 92000 |
| Cc1c(C(=O)Nc2nc3ccccc3s2)nnn1-c1ccccc1Br [YA4003, N-(Benzo[d]thiazol-2-yl)-1-(2-bromophenyl)-5-methyl-1H-1,2,3-triazole-4-carboxamide] | 100 | 1.8 | > 92000 |
| Cc1c(C(=O)Nc2nc3ccccc3s2)nnn1-c1ccc(Br)cc1 [YA1086, N-(Benzo[d]thiazol-2-yl)-1-(4-bromophenyl)-5-methyl-1H-1,2,3-triazole-4-carboxamide] | 32 | > 1000 | > 92000 |
| Cc1ccccc1-n1nnc(C(=O)Nc2ccc3ccccc3n2)c1C [FX1128, reference compound] |  | 4.1 | > 92000 |
| Cc1ccccc1-n1nnc(C(=O)Nc2nc(-c3ccccc3Cl)cs2)c1C [YA4145] |  | > 1000 | > 92000 |
| Cc1ccccc1-n1nnc(C(=O)Nc2ccc3cccnc3n2)c1C [YA6047, 5-Methyl-N-(1,8-naphthyridin-2-yl)-1-(o-tolyl)-1H-1,2,3-triazole-4-carboxamide] |  | > 1000 | > 92000 |
| Cc1c(C(=O)Nc2nc3ccccc3s2)cnn1-c1ccccc1 [YA4011, N-(Benzo[d]thiazol-2-yl)-5-methyl-1-phenyl-1H-pyrazole-4-carboxamide] |  | 8.2 | > 92000 |
| Cc1ccccc1-n1nnc(C(=O)Nc2cc3ccccc3cn2)c1C [YA6164, N-(Isoquinolin-3-yl)-5-methyl-1-(o-tolyl)-1H-1,2,3-triazole-4-carboxamide] |  | > 1000 | > 92000 |
| Cc1cccc(Br)c1-n1nnc(C(=O)Nc2nc3ccccc3s2)c1C [YA1064, N-(Benzo[d]thiazol-2-yl)-1-(2-bromo-6-methylphenyl)-5-methyl-1H-1,2,3-triazole-4-carboxamide] | 72 | 126 | > 92000 |
| Cc1c(C(=O)Nc2nc3ccccc3s2)nnn1-c1c(Cl)cccc1Cl [YA1066, N-(Benzo[d]thiazol-2-yl)-1-(2,6-dichlorophenyl)-5-methyl-1H-1,2,3-triazole-4-carboxamide] | 88 | 19 | > 92000 |
| Cc1ccccc1-n1nnc(C(=O)Nc2ccc3cccc(CN4CCN(C(=O)OC(C)(C)C)CC4)c3n2)c1C [YA6160, tert-Butyl 4-((2-(5-methyl-1-(o-tolyl)-1H-1,2,3-triazole-4-carboxamido)quinolin-8-yl)methyl)piperazine-1-carboxylate] |  | > 1000 | > 92000 |
| Cc1ccccc1-n1nnc(C(=O)Nc2cnc3ccccc3n2)c1C [YA6045, 5-Methyl-N-(quinoxalin-2-yl)-1-(o-tolyl)-1H-1,2,3-triazole-4-carboxamide] |  | 1.8 | > 92000 |
| Cc1cc(C(=O)Nc2nc3ccccc3s2)c(C)n1-c1ccccc1 [YA4136] |  | > 1000 | > 92000 |
| Cc1ccccc1-n1nnc(C(=O)Nc2nc(-c3ccccn3)cs2)c1C [YA4173] | 7 | > 1000 | > 92000 |
| Cc1c(C(=O)Nc2cnc3ccccc3n2)nnn1-c1ccccc1 [YA6141, 5-Methyl-1-phenyl-N-(quinoxalin-2-yl)-1H-1,2,3-triazole-4-carboxamide] |  | 1.7 | > 92000 |
| Cc1c(C(=O)Nc2nc3ccccc3s2)nnn1-c1ccccc1OC(F)(F)F [YA1038, N-(Benzo[d]thiazol-2-yl)-5-methyl-1-(2-(trifluoromethoxy)phenyl)-1H-1,2,3-triazole-4-carboxamide] | 37 | > 1000 | > 92000 |
| CC(C)c1c(C(=O)Nc2nc3ccccc3s2)nnn1-c1ccccc1F [YA4005, N-(Benzo[d]thiazol-2-yl)-1-(2-fluorophenyl)-5-isopropyl-1H-1,2,3-triazole-4-carboxamide] | 99 | 8.8 | > 92000 |
| Cc1cccc(-n2nnc(C(=O)Nc3nc4ccccc4s3)c2C)c1C [YA4037] | 83 | 18 | > 92000 |

| Structure (SMILES) | inhibition at 1 µM [1] [%] | IC50 [1] [nM] | CC50 [2] [nM] |
| --- | --- | --- | --- |
| Cc1ccccc1-n1nnc(C(=O)Nc2ccc3ccc(Br)cc3n2)c1C [YA1126, N-(7-Bromoquinolin-2-yl)-5-methyl-1-(o-tolyl)-1H-1,2,3-triazole-4-carboxamide] |  | > 1000 | > 92000 |
| Cc1ccccc1-n1nnc(C(=O)Nc2nc3ccc(C(F)(F)F)cc3s2)c1C [YA4063, 5-Methyl-1-(o-tolyl)-N-(6-(trifluoromethyl)benzo[d]thiazol-2-yl)-1H-1,2,3-triazole-4-carboxamide] | 24 | > 1000 | > 92000 |
| Cc1ccccc1-n1nnc(C(=O)Nc2ncc3ccccc3n2)c1C [YA6061, 5-Methyl-N-(quinazolin-2-yl)-1-(o-tolyl)-1H-1,2,3-triazole-4-carboxamide] |  | > 1000 | > 92000 |
| Cc1ccccc1-n1ncc(C(=O)Nc2ncc(-c3ccccc3)s2)c1C [YA7019, 5-Methyl-N-(5-phenylthiazol-2-yl)-1-(o-tolyl)-1H-pyrazole-4-carboxamide] |  | > 1000 | > 92000 |
| Cc1c(C(=O)Nc2cnc3ccccc3n2)nnn1-c1ccccc1Cl [YA6139, 1-(2-Chlorophenyl)-5-methyl-N-(quinoxalin-2-yl)-1H-1,2,3-triazole-4-carboxamide] |  | 0.11 | > 92000 |
| Cc1ccccc1-n1nnc(C(=O)Nc2ccc3cccc(Br)c3n2)c1C [YA6146, N-(8-Bromoquinolin-2-yl)-5-methyl-1-(o-tolyl)-1H-1,2,3-triazole-4-carboxamide] |  | > 1000 | > 92000 |
| Cc1ccccc1-n1nnc(C(=O)Nc2ccc3cccnc3c2)c1C [YA6162, 5-Methyl-N-(quinolin-7-yl)-1-(o-tolyl)-1H-1,2,3-triazole-4-carboxamide] |  | > 1000 | > 92000 |
| Cc1ccccc1-n1nnc(C(=O)Nc2nc3ccccc3o2)c1C [YA4067] | 14 | > 1000 | > 92000 |
| Cc1ccccc1-n1nnc(C(=O)Nc2cc(Br)c3ccccc3n2)c1C [YA6150, N-(4-bromoquinolin-2-yl)-5-methyl-1-(o-tolyl)-1H-1,2,3-triazole-4-carboxamide] |  | > 1000 | > 92000 |
| Cc1ccccc1-n1nnc(C(=O)Nc2cc(CN3CCN(C(=O)OC(C)(C)C)CC3)c3ccccc3n2)c1C [YA6159, tert-Butyl 4-((2-(5-methyl-1-(o-tolyl)-1H-1,2,3-triazole-4-carboxamido)quinolin-4-yl)methyl)piperazine-1-carboxylate] |  | > 1000 | > 92000 |
| CC(C)c1c(C(=O)Nc2nc3ccccc3s2)cnn1-c1ccccc1 [YA6144, N-(Benzo[d]thiazol-2-yl)-5-isopropyl-1-phenyl-1H-pyrazole-4-carboxamide] |  | > 1000 | > 92000 |
| Cc1ccccc1-n1nnc(C(=O)Nc2nc3ccc([N+](=O)[O-])cc3s2)c1C [YA4057, 5-Methyl-N-(6-nitrobenzo[d]thiazol-2-yl)-1-(o-tolyl)-1H-1,2,3-triazole-4-carboxamide] |  | > 1000 | > 92000 |
| Cc1c(C(=O)Nc2nc3ccccc3s2)cnn1-c1c(F)cccc1Br [YA4017, N-(Benzo[d]thiazol-2-yl)-1-(2-bromo-6-fluorophenyl)-5-methyl-1H-pyrazole-4-carboxamide] |  | 8.2 | > 92000 |
| COc1ccc2sc(NC(=O)c3nnn(-c4ccccc4C)c3C)nc2c1 [YA4045, N-(5-Methoxybenzo[d]thiazol-2-yl)-5-methyl-1-(o-tolyl)-1H-1,2,3-triazole-4-carboxamide] |  | > 1000 | > 92000 |
| Cc1c(C(=O)Nc2ncc(-c3ccccc3)s2)cnn1-c1ccccc1Br [YA6152, 1-(2-Bromophenyl)-5-methyl-N-(5-phenylthiazol-2-yl)-1H-pyrazole-4-carboxamide] |  | 220 | > 92000 |
| Cc1c(C(=O)Nc2nc3ccccc3s2)nnn1-c1cccc(Br)c1 [YA1050, N-(Benzo[d]thiazol-2-yl)-1-(3-bromophenyl)-5-methyl-1H-1,2,3-triazole-4-carboxamide] | 7 | > 1000 | > 92000 |
| Cc1ccccc1-n1nnc(C(=O)Nc2nc3c(Br)cccc3s2)c1C [YA4097, N-(4-Bromobenzo[d]thiazol-2-yl)-5-methyl-1-(o-tolyl)-1H-1,2,3-triazole-4-carboxamide] | 11 | > 1000 | > 92000 |
| CC(C)c1c(C(=O)Nc2nc3ccc(F)cc3s2)nnn1-c1ccccc1F [YA6172, N-(6-Fluorobenzo[d]thiazol-2-yl)-1-(2-fluorophenyl)-5-isopropyl-1H-1,2,3-triazole-4-carboxamide] | 98 | 7.6 | > 92000 |
| Cc1cccc(F)c1-n1nnc(C(=O)Nc2nc3ccccc3s2)c1C [YA1042, N-(Benzo[d]thiazol-2-yl)-1-(2-fluoro-6-methylphenyl)-5-methyl-1H-1,2,3-triazole-4-carboxamide] | 92 | 3.3 | > 92000 |
| COc1cccc2sc(NC(=O)c3nnn(-c4ccccc4C)c3C)nc12 [YA4061, N-(4-Methoxybenzo[d]thiazol-2-yl)-5-methyl-1-(o-tolyl)-1H-1,2,3-triazole-4-carboxamide] | 27 | > 1000 | > 92000 |
